Results from patent publication US4563479A, “Synergistic radiation protective pharmaceutical compositions” (Chinoin Gyogyszer es Vegyeszeti Termekek Gyar RT, priority 1979, dated 1986).
Counter-ions that a name gives are not always drawn. Like-named read-outs stand apart in the source and are kept apart here.

Experiments:
mice = experiment: Survival and survival coefficient "S" of irradiated mice (X-ray or 60Co gamma), Tables 2-4; format: in vivo; details: 140 mg/kg AET alone i.p.
Protocol: Experiments are carried out in mice. Irradiation was carried out with X-ray (rtg) and with gamma rays obtained from ^60 Co isotope. Survival was observed on the 30th day after irradiation and expressed by using survival coefficient "S" according to Kaluszyner. […] Mice were treated intraperitoneally.

[1] = cited from earlier work
[2] = cited from earlier work; remark: listed apart in the source

For `N=C(N)SCCN` [AET, aminoethyl-isothiuronium-chloride-hydrochloride], the Survival % (mice; X-ray (rtg) 630 R) was 15%, the “Survival coefficient "S"” value (mice; X-ray (rtg) 630 R) was 0.39 and the Survival % (mice; X-ray (rtg) 800 R) was 0%. For the same compound, the “Survival coefficient "S"” value (mice; X-ray (rtg) 800 R) was 0.27, the Survival % (mice; gamma 900 rad) was 5% and the “Survival coefficient "S"” value (mice; gamma 900 rad) was 0.37. For the same compound, the Survival % (mice; gamma 1100 rad) was 0%, the “Survival coefficient "S"” value (mice; gamma 1100 rad) was 0.28 and the LD50 p.o. ([1]; listed as aminoethyl-isothiuronium-chloride-hydrochloride) was 710 mg/kg.
In the case of `N=C(N)SCCN` [aminoethyl-isothiuronium-bromide-hydrobromide], the LD50 p.o. [1] is given as 1200 mg/kg.
For `Cl.N[C@@H](CS)C(=O)O` [cysteine-hydrochloride], the Radiation protective dose ([2]; in vivo) is listed as 1900 mg/kg.
For `N=C(N)NCCS` [mercaptoethyl-guanidine], the LD50 p.o. [1] is listed as 350 mg/kg and the Therapeutic index ([2]; LD50 p.o. / radiation protective dose) is listed as 1.75.
